We go through five compounds from ChEMBL document CHEMBL3430912, “GSK Tres Cantos Anti-Kinetoplastid Screening (TCAKS) Data”.

Data set [1] is described as follows: GSK_TCAKS: pIC50 HepG2 human cell line viability assay using luminiscence. […] Seeding density was checked to ensure that new mono-layers were not more than 50% confluent at the time of harvesting. Cell suspension was added to 500 mL of the same medium at a final density of 1.2 * 10^5 cells/mL. This cell suspension was dispensed (25 uL, 3000 cells per well) into 384-well clear-bottom plates using a Multidrop Combi dispenser. Prior to addition of the cell suspension, the screening compounds (250 nL) were pre-dispensed into the plates with an Echo liquid handler. Plates were incubated for 48 h at 37C, 5% CO2. After incubation, plates equilibrated at room temperature for 30 min before proceeding to develop the luminescent signal. The signal developer, CellTiter-Glo Reagent, was allowed to equilibrate at room temperature for 30 min and added to the plates (25uL per well) using a Multidrop Combi dispenser. Plates were left for 10 min at room temperature for stabilization and then read using a ViewLux. It is filed as toxicity, cell-based. In general terms: In ATP-based viability assays light output follows the ATP content of the culture.

Data set [2] concerns Leishmania donovani. As to the kind of experiment: GSK_TCAKS: pIC50 Leishmania donovani Imaging: Amastigotes/Macrophages. Assay plates (384-well) were prepared by adding 250nL of compound to each well. For single shot assay, the final compound concentration was 5 uM. […] Automated image analysis was performed with a script developed on Acapella High Content Imaging and Analysis Software (PerkinElmer). Output: Average number of amastigotes per macrophage cell were reported for each well. It is filed as functional, organism-based, Homo sapiens. The note with it: THP-1.

The subject of data set [3] is Trypanosoma cruzi. As to the kind of experiment: (§1) GSK_TCAKS: pIC50 H2C9 Imaging: H9c2 Host Cardiomyocytes. […] Cells were then washed once with PBS before infection. T. cruzi trypomastigotes, collected at days 5 to 8 after infection from LLC-MK2 parasite infected cultures, were allowed to swim out for 4h at 37C from a centrifuged pellet (2,500 rpm/10 min/room temperature). Trypomastigotes were then collected and counted in a CASY Cell Counter. Trypomastigotes, in supplemented DMEM, were added to H9c2 cultures in a multiplicity of infection of 1 and incubated for 18 h. Cells were washed once with PBS before incubation of the infected H9c2 monolayer with trypsin (Life-Technologies) to detach cells from the flask. Cells were counted in a CASY Cell Counter using a 150 um capillary and their density set at 5 * 10^4 cells per mL in supplemented assay DMEM. Infected H9c2 were dispensed into 384-well poly-lysine coated assay plates at 50uL per well using a Multidrop Combi dispenser. After seeding them, the plates were incubated at 37C, 5% CO2 for 72h. Cultures were then fixed and stained by addition of 50 uL of a solution containing 8% formaldehyde and 4 uM DRAQ5 DNA dye (BioStatus, UK) per well. […] Five images were collected per well for reliable statistical analysis. Automated image analysis was performed with a script developed on Acapella High Content Imaging and Analysis Software (PerkinElmer). Output: Number of H9c2 Host Cardiomyocytes nuclei to determine drug-related cytotoxicity. Format: functional, organism-based, Rattus norvegicus. The note with it: H9c2, 4 h.

Data set [4] concerns Leishmania donovani. As to the kind of experiment: GSK_TCAKS: pIC50 Leishmania donovani viability assay using fluorescence intensity. Assay plates (1536-well) were prepared by adding 30nL per well of compound. For single shot assay, the final compound concentration was 5uM. […] Briefly, eGFP LdBOB axenic amastigotes were harvested, fixed and counted in a CASY cell counter (Roche-Applied Science). A final concentration of 1.5 * 10^5 cells per well were prepared in amastigote media containing 500 U/mL penicillin/streptomycin (Invitrogen) and 6uL was dispensed to each experimental well using a Multidrop Combi dispenser (Thermo Scientific). 6uL of assay media was dispensed to control columns used as reference for 100% compound response. Following incubation for 72 h at 37C, 5% CO2, 2 uL of resazurin was added to each well at a final concentration of 0.5 mM in phosphate buffered saline (PBS) with IGEPAL (Sigma-Aldrich), 0.05% (v/v). Format: functional, organism-based. In general terms: Alamar Blue is a resazurin reagent that responds to reducing activity.

The test system of data set [5] is Leishmania donovani. Description: GSK_TCAKS: pIC50 Leishmania donovani Imaging: THP-1 Host Macrophages. Assay plates (384-well) were prepared by adding 250nL of compound to each well. For single shot assay, the final compound concentration was 5 uM. […] Automated image analysis was performed with a script developed on Acapella High Content Imaging and Analysis Software (PerkinElmer). Output: THP-1 cell count were reported for each well. It is filed as functional, organism-based, Homo sapiens.

In data set [6] the target is Sterol 14-alpha demethylase (Trypanosoma cruzi (strain CL Brener), UniProt Q7Z1V1). Description: GSK_TCAKS: pIC50 CYP51 from Trypanosoma cruzi. It is filed as functional.
The subject of data set [7] is Trypanosoma cruzi. Description: GSK_TCAKS: pIC50 Trypanosoma cruzi viability assay using beta-GAL activity. This assay was run at single shot at 5uM compound concentration per well. The biological reagents consisted of NIH-3T3 host cells and trypomastigotes parasitic cells; both cell types were set to a 3.3 * 10^5 cells/mL dilution in assay DMEM by means of a CASY cell counter device using a 60um capillary. 6 uL of the mixture were dispensed per well (about 1 * 10^3 host-cells and 1 * 10^3 parasites) with a Multidrop Combi dispenser. […] In all wells, the percentage of DMSO never exceeded 0.5%. Plates incubated for four days at 37C, 5% CO2. The substrate used for the assay fluorescence intensity (FLINT) readout was resorufin-beta-D-galactopiranoside (Sigma-Aldrich) at 5uM per well. It was diluted in PBS supplemented with the soft detergent Igepal (Fluka). It is filed as functional, organism-based, Mus musculus. The conditions noted are these: Tulahuen, NIH3T3.

Data set [8] concerns Trypanosoma cruzi. The data set is described as §1, with “Trypanosoma cruzi” for “H2C9”, “Amastigotes/Cell.” for “H9c2 Host Cardiomyocytes.”, “number” for “Number”, “amastigotes per cell as infection level measurement.” for “H9c2 Host Cardiomyocytes nuclei to determine drug-related cytotoxicity.”. It is filed as functional, organism-based, Rattus norvegicus. The conditions noted are these: H9c2, 4 h.

In data set [9] the test system is Leishmania donovani. Description: GSK_TCAKS: pIC50 Leishmania donovani Imaging: Infected Macrophages. Assay plates (384-well) were prepared by adding 250nL of compound to each well. For single shot assay, the final compound concentration was 5 uM. […] Automated image analysis was performed with a script developed on Acapella High Content Imaging and Analysis Software (PerkinElmer). Output: Percent of infected macrophage cells were reported for each well. The conditions noted are these: THP-1. It is filed as functional, organism-based, Homo sapiens.

The subject of data set [10] is Trypanosoma brucei brucei. Description: GSK_TCAKS: pIC50 Trypanosoma brucei viability assay using fluorescence intensity. Assay plates (1536-well) were prepared by dispensing 25nL of compound solution per well using an Echo acoustic dispenser (Labcyte). It is filed as functional, organism-based. The note with it: Lister 427, 2 h.
The subject of data set [11] is Trypanosoma cruzi. Described as §1, with “Trypanosoma cruzi” for “H2C9”, “Infected Cells.” for “H9c2 Host Cardiomyocytes.”, “percentage” for “Number”, “infected cells per well as a second infection marker.” for “H9c2 Host Cardiomyocytes nuclei to determine drug-related cytotoxicity.”. The note with it: H9c2, 4 h. It is filed as functional, organism-based, Rattus norvegicus.

Data set [12] has as its system Trypanosoma brucei brucei. As to the kind of experiment: GSK_TCAKS: pIC50 Trypanosoma brucei viability assay using luminiscence. Assay plates (1536-well) were prepared. T. brucei cultures were harvested and counted in a CASY cell counter. A parasite suspension was prepared at a final concentration of 5 * 10^4 cells/mL in complete HMI9 medium and 6uL was dispensed to all wells containing compounds using a Multidrop Combi dispenser. 6uL of HMI9 media with 0.4% DMSO were dispensed to control columns. Plates were incubated for 24 h at 37C, 5% CO2 then tempered for 10 min at room temperature. ATP content was quantified by adding 4 uL of CellTiter-Glo Reagent (Promega) according to the manufacturer's instructions. Luminescence was measured using a ViewLux. It is filed as functional, organism-based. The conditions noted are these: Lister 427, CASY.

In the next data set the test system is NIH3T3. As to the kind of experiment: GSK_TCAKS: pIC50 NIH 3T3 cell line viability assay using luminiscence. Tissue culture surface treated assay plates (1536-well) were used. […] The 100% cells survival control was determined exposing the host-cells to a 0.5% DMSO concentration, whereas the 100% toxicity control was achieved by seeding the cells in presence of Amphotericin B at 50uM. Plates were incubated for four days at 37C, 5% CO2. The assay readout was developed by addition of 5uL of CellTiter-Glo Reagent following the manufacturer's instructions. Luminiscence was measured using a ViewLux. Format: functional, cell-based. The conditions noted are these: Mus musculus, NIH3T3, 96 h.

Structures are written as SMILES. A value given as a limit tells only on which side of the number the result lay.

Sterol 14-alpha demethylase, sequence (Q7Z1V1 whole entry): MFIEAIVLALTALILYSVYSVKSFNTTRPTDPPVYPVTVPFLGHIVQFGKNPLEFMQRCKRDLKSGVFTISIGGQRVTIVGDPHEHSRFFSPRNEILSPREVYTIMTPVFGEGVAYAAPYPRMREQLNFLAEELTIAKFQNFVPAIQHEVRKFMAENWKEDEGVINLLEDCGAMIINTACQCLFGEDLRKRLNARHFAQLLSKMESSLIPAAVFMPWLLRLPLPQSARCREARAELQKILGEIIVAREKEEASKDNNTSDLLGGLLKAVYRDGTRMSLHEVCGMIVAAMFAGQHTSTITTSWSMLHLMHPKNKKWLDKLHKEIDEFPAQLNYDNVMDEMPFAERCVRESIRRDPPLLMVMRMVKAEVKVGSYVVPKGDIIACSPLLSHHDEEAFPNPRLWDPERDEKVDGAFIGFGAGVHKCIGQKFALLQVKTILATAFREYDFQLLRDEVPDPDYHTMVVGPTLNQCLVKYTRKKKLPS

Turning to `CS(=O)(=O)c1cccc(-c2cnc(N)c3c(-c4ccc(CO)cc4)csc23)c1`, in data set [1], the IC50 at 48 h was > 100 µM. For the same compound, the IC50 in the data set with Leishmania donovani [2] was 7.94 µM; in the data set with Trypanosoma cruzi [3] it was > 50.1 µM; in the data set with Leishmania donovani [4] it was 39.8 µM; in the data set with Leishmania donovani [5], > 50.1 µM; in [6] it was 3.16 µM; with Trypanosoma cruzi [7], 0.794 µM. Besides, the IC50 in the data set with Trypanosoma cruzi [8] is 0.316 µM; with Leishmania donovani [9], 10 µM; in data set [10] it was 2 µM; in the data set with Trypanosoma cruzi [11], 0.631 µM; in data set [12], 5.01 µM; with NIH3T3, 25.1 µM.
As for `O=C(NCCc1ccccn1)C(c1cn[nH]c1)N1CCN(c2ccc(Cl)c(Cl)c2)CC1` (stereo not given), the IC50 at 48 h in [1] was > 100 µM. Also, the 50% inhibitory concentration (IC50) with Leishmania donovani [2] is 20 µM; in the data set with Trypanosoma cruzi [3] it was > 50.1 µM; with Leishmania donovani [4] it was 2.51 µM; in the data set on Leishmania donovani [5], > 50.1 µM; in [6], 0.126 µM; with Trypanosoma cruzi [7], 0.1 µM. In addition, the IC50 in the data set on Trypanosoma cruzi [8] was 0.126 µM; with Leishmania donovani [9], > 50.1 µM; in [10] it was 12.6 µM; in the data set with Trypanosoma cruzi [11] it was 0.158 µM; in data set [12] it was > 39.8 µM; with NIH3T3, 31.6 µM.
As to `COc1ccc(-c2ccc3nnc(-c4ccc(O)c(OC)c4)n3c2)cn1`, the IC50 at 48 h in data set [1] is > 100 µM. In addition, the IC50 in the data set on Leishmania donovani [2] was > 50.1 µM; in the data set with Trypanosoma cruzi [3], > 50.1 µM; with Leishmania donovani [4] it was 3.98 µM; in the data set with Leishmania donovani [5] it was > 50.1 µM; in data set [6] it was > 100 µM; in the data set on Trypanosoma cruzi [7] it was 1.26 µM. In addition, the IC50 in the data set on Trypanosoma cruzi [8] was 2 µM; in the data set with Leishmania donovani [9], > 50.1 µM; in data set [10], 2 µM; with Trypanosoma cruzi [11], 3.16 µM; in data set [12] it was 2.51 µM; with NIH3T3 it was 50.1 µM.
As to `COc1cc(-c2nc(N3CCOCC3)sc2-c2ccnc(NC3CCOCC3)n2)ccc1Cl`, the half-maximal inhibitory concentration (IC50) at 48 h in [1] was > 100 µM. In addition, the IC50 with Leishmania donovani [2] is 0.02 µM; with Trypanosoma cruzi [3] it was > 50.1 µM; in the data set on Leishmania donovani [4] it was > 50.1 µM; in the data set with Leishmania donovani [5] it was > 50.1 µM; in data set [6], > 100 µM; with Trypanosoma cruzi [7], 0.251 µM. The IC50 in the data set on Trypanosoma cruzi [8] is 0.1 µM; with Leishmania donovani [9] it was > 50.1 µM; in data set [10], 15.8 µM; with Trypanosoma cruzi [11], 0.158 µM; in data set [12] it was > 39.8 µM; with NIH3T3, > 50.1 µM.
Regarding `CN(C)c1ncc(-c2cncn2CCOc2ccc(Cl)cc2)cn1`, the IC50 at 48 h in [1] is > 100 µM. Besides, the IC50 was > 50.1 µM in the data set with Leishmania donovani [2]; > 50.1 µM in the data set with Trypanosoma cruzi [3]; > 50.1 µM with Leishmania donovani [4]; > 50.1 µM with Leishmania donovani [5]; 0.0501 µM in data set [6]; 0.224 µM in the data set with Trypanosoma cruzi [7]. The IC50 was 0.2 µM in the data set on Trypanosoma cruzi [8]; > 50.1 µM in the data set on Leishmania donovani [9]; > 39.8 µM in data set [10]; 0.251 µM with Trypanosoma cruzi [11]; > 39.8 µM in data set [12]; 39.8 µM with NIH3T3.

What is called IC50 is the midpoint of a concentration-inhibition curve.
